For 22 compounds, IC50 results are on record in patent publication US10071086B2, “1H-pyrazolo[3,4-b]pyridines and therapeutic uses thereof” (Samumed, LLC, priority 2012, dated 2018).

The subject of the experiment is Wnt pathway. In words: Wnt activity reporter assay (SP5 promoter-luciferase in SW480 cells). The note with it: Homo sapiens, SP5 promoter firefly luciferase reporter, read-out: Wnt inhibition. It counts as cell-based. From the text:
The above synthesized compounds were screened using the assay procedure for Wnt activity described below.
Reporter cell lines can be generated by stably transducing cells of cancer cell lines (e.g., colon cancer) with a lentiviral construct that include a wnt-responsive promoter driving expression of the firefly luciferase gene.
Lentiviral constructs can be made in which the SP5 promoter, a promoter having eight TCF/LEF binding sites derived from the SP5 promoter, is linked upstream of the firefly luciferase gene. The lentiviral constructs can also include a hygromycin resistance gene as a selectable marker. The SP5 promoter construct can be used to transduce SW480 cells, a colon cancer cell line having a mutated APC gene that generates a truncated APC protein, leading to de-regulated accumulation of β-catenin.
Cultured SW480 cells bearing a reporter construct can be distributed at approximately 10,000 cells per well into 96 well or 384 well plates. Compounds from a small molecule compound library can then be added to the wells in half-log dilutions using a ten micromolar top concentration. A series of control wells for each cell type receive only buffer and compound solvent. Twenty-four to forty hours after the addition of compound, reporter activity for luciferase can be assayed, for example, by addition of the BrightGlo luminescence reagent (Promega) and the Victor3 plate reader (Perkin Elmer). Readings can be normalized to DMSO only treated cells, and normalized activities can then be used in the IC50 calculations.
(In general: Reporter assays use an easily measured gene product as a stand-in for the process of interest.)
With `CCNCc1cncc(-c2cnc3[nH]nc(-c4nc5c(-c6cccc(F)c6)cccc5[nH]4)c3c2)c1` [Compound 547, N-((5-(3-(4-(3-Fluorophenyl)-1H-benzo[d]imidazol-2-yl)-1H-pyrazolo[3,4-b]pyridin-5-yl)pyridin-3-yl)methyl)ethanamine], the IC50 came out at 97 nM. Next, `CC(C)Nc1cncc(-c2cnc3[nH]nc(-c4nc5c(-c6cccc(F)c6)cccc5[nH]4)c3c2)c1` [Compound 551, 5-(3-(4-(3-Fluorophenyl)-1H-benzo[d]imidazol-2-yl)-1H-pyrazolo[3,4-b]pyridin-5-yl)-N-isopropylpyridin-3-amine]: 33 nM; `CN(C)Cc1cncc(-c2cnc3[nH]nc(-c4nc5c(-c6cccc(F)c6)cccc5[nH]4)c3c2)c1` [Compound 552, 1-(5-(3-(4-(3-Fluorophenyl)-1H-benzo[d]imidazol-2-yl)-1H-pyrazolo[3,4-b]pyridin-5-yl)pyridin-3-yl)-N,N-dimethylmethanamine]: 22 nM; `Fc1cccc(-c2cccc3[nH]c(-c4n[nH]c5ncc(-c6cncc(CN7CCCCC7)c6)cc45)nc23)c1` [Compound 554, 3-(4-(3-Fluorophenyl)-1H-benzo[d]imidazol-2-yl)-5-(5-(piperidin-1-ylmethyl)pyridin-3-yl)-1H-pyrazolo[3,4-b]pyridine]: 200 nM. The result for `CCCCC(=O)Nc1cncc(-c2cnc3[nH]nc(-c4nc5c(-c6cccc(F)c6)cccc5[nH]4)c3c2)c1` [Compound 557, N-(5-(3-(4-(3-Fluorophenyl)-1H-benzo[d]imidazol-2-yl)-1H-pyrazolo[3,4-b]pyridin-5-yl)pyridin-3-yl)pentanamide] reads 53 nM; that for `O=C(Nc1cncc(-c2cnc3[nH]nc(-c4nc5c(-c6cccc(F)c6)cccc5[nH]4)c3c2)c1)C1CCCC1` [Compound 560, N-(5-(3-(4-(3-Fluorophenyl)-1H-benzo[d]imidazol-2-yl)-1H-pyrazolo[3,4-b]pyridin-5-yl)pyridin-3-yl)cyclopentanecarboxamide], 90 nM. `O=C(Nc1cncc(-c2cnc3[nH]nc(-c4nc5c(-c6cccc(F)c6)cccc5[nH]4)c3c2)c1)C1CCCCC1` [Compound 561, N-(5-(3-(4-(3-Fluorophenyl)-1H-benzo[d]imidazol-2-yl)-1H-pyrazolo[3,4-b]pyridin-5-yl)pyridin-3-yl)cyclohexanecarboxamide]: the IC50 was determined as 143 nM. The result for `O=C(Nc1cncc(-c2cnc3[nH]nc(-c4nc5c(-c6ccc(F)cc6)cccc5[nH]4)c3c2)c1)c1ccccc1` [Compound 573, N-(5-(3-(4-(4-Fluorophenyl)-1H-benzo[d]imidazol-2-yl)-1H-pyrazolo[3,4-b]pyridin-5-yl)pyridin-3-yl)benzamide] reads 82 nM. The result for `O=C(Nc1cncc(-c2cnc3[nH]nc(-c4nc5c(-c6ccc(F)cc6)cccc5[nH]4)c3c2)c1)C1CC1` [Compound 581, N-(5-(3-(4-(4-Fluorophenyl)-1H-benzo[d]imidazol-2-yl)-1H-pyrazolo[3,4-b]pyridin-5-yl)pyridin-3-yl)cyclopropanecarboxamide] reads 48 nM; that for `Fc1ccc(-c2cccc3[nH]c(-c4n[nH]c5ncc(-c6cncc(CNCC7CCCC7)c6)cc45)nc23)cc1` [Compound 586, 1-Cyclopentyl-N-((5-(3-(4-(4-fluorophenyl)-1H-benzo[d]imidazol-2-yl)-1H-pyrazolo[3,4-b]pyridin-5-yl)pyridin-3-yl)methyl)methanamine], 420 nM. The result for `Fc1ccccc1-c1cccc2[nH]c(-c3n[nH]c4ncc(-c5cccnc5)cc34)nc12` [Compound 590, 3-(4-(2-Fluorophenyl)-1H-benzo[d]imidazol-2-yl)-5-(pyridin-3-yl)-1H-pyrazolo[3,4-b]pyridine] reads 20 nM; that for `CC(C)(C)C(=O)Nc1cncc(-c2cnc3[nH]nc(-c4nc5c(-c6ccccc6F)cccc5[nH]4)c3c2)c1` [Compound 594, N-(5-(3-(4-(2-Fluorophenyl)-1H-benzo[d]imidazol-2-yl)-1H-pyrazolo[3,4-b]pyridin-5-yl)pyridin-3-yl)pivalamide], 120 nM; that for `O=C(Cc1ccccc1)Nc1cncc(-c2cnc3[nH]nc(-c4nc5c(-c6ccccc6F)cccc5[nH]4)c3c2)c1` [Compound 595, N-(5-(3-(4-(2-Fluorophenyl)-1H-benzo[d]imidazol-2-yl)-1H-pyrazolo[3,4-b]pyridin-5-yl)pyridin-3-yl)-2-phenylacetamide], 354 nM. Consider `Fc1ccccc1-c1cccc2[nH]c(-c3n[nH]c4ncc(-c5cncc(CN6CCCC6)c5)cc34)nc12` [Compound 599, 3-(4-(2-Fluorophenyl)-1H-benzo[d]imidazol-2-yl)-5-(5-(pyrrolidin-1-ylmethyl)pyridin-3-yl)-1H-pyrazolo[3,4-b]pyridine], for which the IC50 was determined as 220 nM.

On to `CCCC(=O)Nc1cncc(-c2cnc3[nH]nc(-c4nc5c(-c6ccccc6F)cccc5[nH]4)c3c2)c1` [Compound 602, N-(5-(3-(4-(2-Fluorophenyl)-1H-benzo[d]imidazol-2-yl)-1H-pyrazolo[3,4-b]pyridin-5-yl)pyridin-3-yl)butyramide], for which the IC50 is 18 nM. Next, `O=C(Nc1cncc(-c2cnc3[nH]nc(-c4nc5c(-c6ccccc6F)cccc5[nH]4)c3c2)c1)C1CCC1` [Compound 605, N-(5-(3-(4-(2-Fluorophenyl)-1H-benzo[d]imidazol-2-yl)-1H-pyrazolo[3,4-b]pyridin-5-yl)pyridin-3-yl)cyclobutanecarboxamide]: 18 nM; `CN(C)c1cncc(-c2cnc3[nH]nc(-c4nc5c(-c6cccnc6)cccc5[nH]4)c3c2)c1` [Compound 616, N,N-Dimethyl-5-(3-(4-(pyridin-3-yl)-1H-benzo[d]imidazol-2-yl)-1H-pyrazolo[3,4-b]pyridin-5-yl)pyridin-3-amine]: 1410 nM. `CN(C)Cc1cncc(-c2cnc3[nH]nc(-c4nc5c(-c6cccnc6)cccc5[nH]4)c3c2)c1` [Compound 621, N,N-Dimethyl-1-(5-(3-(4-(pyridin-3-yl)-1H-benzo[d]imidazol-2-yl)-1H-pyrazolo[3,4-b]pyridin-5-yl)pyridin-3-yl)methanamine]: the IC50 worked out at 36 nM.

Consider `Nc1cncc(-c2cnc3[nH]nc(-c4nc5c(-c6ccncc6)cccc5[nH]4)c3c2)c1` [Compound 635, 5-(3-(4-(Pyridin-4-yl)-1H-benzo[d]imidazol-2-yl)-1H-pyrazolo[3,4-b]pyridin-5-yl)pyridin-3-amine], for which the IC50 turned out to be 34 nM. `Cc1ccncc1-c1cnc2[nH]nc(-c3nc4c(-c5ccncc5)cccc4[nH]3)c2c1` [Compound 637, 5-(4-Methylpyridin-3-yl)-3-(4-(pyridin-4-yl)-1H-benzo[d]imidazol-2-yl)-1H-pyrazolo[3,4-b]pyridine]: the IC50 came to 110 nM.

For the compound `CC(C)Nc1cncc(-c2cnc3[nH]nc(-c4nc5c(-c6ccncc6)cccc5[nH]4)c3c2)c1` [Compound 643, N-Isopropyl-5-(3-(4-(pyridin-4-yl)-1H-benzo[d]imidazol-2-yl)-1H-pyrazolo[3,4-b]pyridin-5-yl)pyridin-3-amine], the IC50 was determined as 30 nM. As to `CC(C)(C)CC(=O)Nc1cncc(-c2cnc3[nH]nc(-c4nc5c(-c6ccncc6)cccc5[nH]4)c3c2)c1` [Compound 647, 3,3-Dimethyl-N-(5-(3-(4-(pyridin-4-yl)-1H-benzo[d]imidazol-2-yl)-1H-pyrazolo[3,4-b]pyridin-5-yl)pyridin-3-yl)butanamide], the IC50 was 1520 nM.
